Laboratory results from US11192891B2, “Diazaspiro ROCK inhibitors” (BRISTOL-MYERS SQUIBB COMPANY, priority 2017, dated 2021).

Molecular target: ROCK2 (Homo sapiens, UniProt O75116)
Assay: ROCK kinase inhibition assay, FITC peptide substrate, LABCHIP 3000 readout
Assay type: biochemical
Conditions: 5 μM ATP, 1.5 μM peptide substrate
Summary of the method: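 Tested across a concentration range, with percent inhibition of kinase activity derived per concentration. Peptide phosphorylation, initiated by adding the Rho kinase variant (final DMSO <2%), was quenched with EDTA and substrate/product resolved by mobility shift.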

Sequence of ROCK2 (O75116 whole entry, species assumed): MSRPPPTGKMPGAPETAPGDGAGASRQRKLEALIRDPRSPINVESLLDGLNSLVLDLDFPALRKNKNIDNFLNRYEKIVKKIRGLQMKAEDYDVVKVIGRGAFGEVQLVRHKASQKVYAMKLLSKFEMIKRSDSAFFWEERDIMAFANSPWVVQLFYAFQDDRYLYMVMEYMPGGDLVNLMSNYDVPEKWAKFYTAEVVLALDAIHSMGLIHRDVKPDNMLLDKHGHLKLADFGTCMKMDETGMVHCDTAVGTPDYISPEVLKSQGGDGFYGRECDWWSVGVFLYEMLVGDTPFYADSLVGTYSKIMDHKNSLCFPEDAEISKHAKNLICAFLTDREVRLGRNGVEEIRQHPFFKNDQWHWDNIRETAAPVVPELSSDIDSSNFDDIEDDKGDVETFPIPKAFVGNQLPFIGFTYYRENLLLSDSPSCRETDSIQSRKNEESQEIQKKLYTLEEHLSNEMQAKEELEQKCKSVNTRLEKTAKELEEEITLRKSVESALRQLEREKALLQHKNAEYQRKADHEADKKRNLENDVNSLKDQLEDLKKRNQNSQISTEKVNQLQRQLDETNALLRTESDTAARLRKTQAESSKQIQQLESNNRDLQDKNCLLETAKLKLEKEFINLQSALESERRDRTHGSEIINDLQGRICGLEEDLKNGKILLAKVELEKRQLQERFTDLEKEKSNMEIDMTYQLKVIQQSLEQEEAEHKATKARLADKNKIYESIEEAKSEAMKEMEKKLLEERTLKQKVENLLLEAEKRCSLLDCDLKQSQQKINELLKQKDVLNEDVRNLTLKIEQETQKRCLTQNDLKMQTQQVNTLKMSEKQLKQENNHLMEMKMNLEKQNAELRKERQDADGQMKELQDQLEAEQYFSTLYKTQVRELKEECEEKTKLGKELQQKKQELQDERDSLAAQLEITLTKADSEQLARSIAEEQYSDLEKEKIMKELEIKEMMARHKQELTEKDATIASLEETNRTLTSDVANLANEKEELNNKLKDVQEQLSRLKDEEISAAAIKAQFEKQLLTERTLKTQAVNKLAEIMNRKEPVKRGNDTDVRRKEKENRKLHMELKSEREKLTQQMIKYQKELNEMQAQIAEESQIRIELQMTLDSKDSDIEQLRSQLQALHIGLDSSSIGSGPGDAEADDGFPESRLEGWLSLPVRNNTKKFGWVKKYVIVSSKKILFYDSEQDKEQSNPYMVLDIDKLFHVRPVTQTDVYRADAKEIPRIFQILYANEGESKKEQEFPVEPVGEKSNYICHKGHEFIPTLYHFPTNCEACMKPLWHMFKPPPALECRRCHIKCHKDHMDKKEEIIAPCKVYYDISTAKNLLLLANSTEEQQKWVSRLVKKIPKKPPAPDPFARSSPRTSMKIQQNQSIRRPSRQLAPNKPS

COc1cc(N2CCC3(CCN(C(=O)c4ccc(N5CCCOC5=O)cc4)CC3)C2=O)ccc1-c1cn[nH]c1 [Example 137, 2-[3-methoxy-4-(1H-pyrazol-4-yl)phenyl]-8-[4-(2-oxo-1,3-oxazinan-3-yl)benzoyl]-2,8-diazaspiro[4.5]decan-1-one]
IC50: 0.0071 µM

CN1CCN(c2ccc(C(=O)N3CCC4(CC3)CCN(c3ccc(-c5ccnc6[nH]ccc56)cc3)C4=O)cc2)CC1 [Example 35, 8-[4-(4-methylpiperazin-1-yl)benzoyl]-2-(4-{1H-pyrrolo[2,3-b]pyridin-4-yl}phenyl)-2,8-diazaspiro[4.5]decan-1-one]
IC50: 0.0003 µM

CN1CCN(c2ccc(C(=O)N3CCC4(CC3)CCN(c3ccc(-c5ccnc(N)c5)cc3)C4=O)cc2)CC1 [Example 36, 2-[4-(2-aminopyridin-4-yl)phenyl]-8-[4-(4-methylpiperazin-1-yl)benzoyl]-2,8-diazaspiro[4.5]decan-1-one]
IC50: 0.002 µM

COc1cc(N2CCC3(CCN(C(=O)c4ccc(N5CCCNC5=O)cc4)CC3)C2=O)ccc1-c1cn[nH]c1 [Example 126, 2-[3-methoxy-4-(1H-pyrazol-4-yl)phenyl]-8-[4-(2-oxo-1,3-diazinan-1-yl)benzoyl]-2,8-diazaspiro[4.5]decan-1-one]
IC50: 0.0077 µM

COc1cc(N2CCC3(CCN(C(=O)c4ccc(CN5CCOCC5)cc4)CC3)C2=O)ccc1-c1cn[nH]c1 [Example 180, 2-[3-methoxy-4-(1H-pyrazol-4-yl)phenyl]-8-{4-[(morpholin-4-yl)methyl]benzoyl}-2,8-diazaspiro[4.5]decan-1-one]
IC50: 0.027 µM

COc1cc(N2CCC3(CCN(C(=O)c4csc(-c5ccccc5)n4)CC3)C2=O)ccc1-c1cn[nH]c1 [Example 84, 2-[3-methoxy-4-(1H-pyrazol-4-yl)phenyl]-8-(2-phenyl-1,3-thiazole-4-carbonyl)-2,8-diazaspiro[4.5]decan-1-one]
IC50: 0.138 µM

COc1cc(N2CCC3(CCN(C(=O)c4ccc(N5CCN(Cc6ccc(N(C)C)cc6)CC5)cc4)CC3)C2=O)ccc1-c1cn[nH]c1 [Example 245, 8-[4-(4-{[4-(dimethylamino)phenyl]methyl}piperazin-1-yl)benzoyl]-2-[3-methoxy-4-(1H-pyrazol-4-yl)phenyl]-2,8-diazaspiro[4.5]decan-1-one]
IC50: 0.0001 µM

COc1cc(N2CCC3(CCN(C(=O)C4CCN(c5ccncc5)CC4)CC3)C2=O)ccc1-c1cn[nH]c1 [Example 175, 2-[3-methoxy-4-(1H-pyrazol-4-yl)phenyl]-8-[1-(pyridin-4-yl)piperidine-4-carbonyl]-2,8-diazaspiro[4.5]decan-1-one]
IC50: 0.195 µM

COc1cc(N2CCC3(CCN(C(=O)c4ccc(-c5nn[nH]n5)cc4)CC3)C2=O)ccc1-c1cn[nH]c1 [Example 143, 2-[3-methoxy-4-(1H-pyrazol-4-yl)phenyl]-8-[4-(2H-1,2,3,4-tetrazol-5-yl)benzoyl]-2,8-diazaspiro[4.5]decan-1-one]
IC50: 1.02 µM

CCN(CC)c1ccc(C(=O)N2CCC3(CC2)CCN(c2ccc(-c4cn[nH]c4)c(OC)c2)C3=O)cc1 [Example 194, 8-[4-(diethylamino)benzoyl]-2-[3-methoxy-4-(1H-pyrazol-4-yl)phenyl]-2,8-diazaspiro[4.5]decan-1-one]
IC50: 0.0052 µM

COc1ccc(C(=O)N2CCC3(CC2)CCN(c2ccc(-c4cn[nH]c4)c(OC)c2)C3=O)c(OCc2ccccc2)c1 [Example 184, 8-[2-(benzyloxy)-4-methoxybenzoyl]-2-[3-methoxy-4-(1H-pyrazol-4-yl)phenyl]-2,8-diazaspiro[4.5]decan-1-one]
IC50: 0.012 µM

COc1cc(-c2cn[nH]c2)ccc1C(=O)N1CCC2(CC1)CCN(c1ccc(-c3cn[nH]c3)c(OC)c1)C2=O [Example 159, 8-[2-methoxy-4-(1H-pyrazol-4-yl)benzoyl]-2-[3-methoxy-4-(1H-pyrazol-4-yl)phenyl]-2,8-diazaspiro[4.5]decan-1-one]
IC50: 0.029 µM

COc1cc(N2CCC3(CCN(C(=O)c4ccc(C)s4)CC3)C2=O)ccc1-c1cn[nH]c1 [Example 66, 2-[3-methoxy-4-(1H-pyrazol-4-yl)phenyl]-8-(5-methylthiophene-2-carbonyl)-2,8-diazaspiro[4.5]decan-1-one]
IC50: 0.372 µM
